Assay results: ChEMBL document CHEMBL3046682, “Synthesis of lactosylated piperazinyl porphyrins and their hepatocyte-selective targeting” (Med Chem Res, 2007); call rule not given here
≈ marks a conversion by molar mass, not a printed value.

Columns and labels:
Liver [1] = experiment: Biodistribution in tumor-bearing Mus musculus KM (mouse) liver at 10 mg/kg, ip after 3 to 24 hr by fluorescence assay; assay type: ADME, organism-based; set-up: dose 10 mg/kg, route intraperitoneal; details: in vivo
Zone of skin = experiment: Biodistribution in tumor-bearing Mus musculus KM (mouse) skin at 10 mg/kg, ip after 3 to 24 hr by fluorescence assay; assay type: ADME, organism-based; set-up: dose 10 mg/kg, route intraperitoneal; details: in vivo
Liver [2] = experiment: Biodistribution in tumor-bearing Mus musculus KM (mouse) liver at 10 mg/kg, ip after 144 hr by fluorescence assay; assay type: ADME, organism-based; set-up: dose 10 mg/kg, route intraperitoneal; details: in vivo
[3] = Cytotoxicity against Homo sapiens (human) MCG cells assessed as cell death after 48 hr by MTT assay in absence of light; assay type: functional; details: read-out: ID50 (the source's name)
[4] = Cytotoxicity against Homo sapiens (human) HNE1 cells assessed as cell death at 6.25 ug/ml after 18 hr by MTT assay in absence of light; assay type: functional
[5] = Photocytotoxicity against Homo sapiens (human) Bel7404 cells assessed as cell death at 6.25 ug/ml after 18 hr by MTT assay in presence of light; assay type: functional, BEL-7404
[6] = Cytotoxicity against Homo sapiens (human) Bel7404 cells assessed as cell death at 6.25 ug/ml after 18 hr by MTT assay in absence of light; assay type: functional, BEL-7404
[7] = Cytotoxicity against Homo sapiens (human) Bel7404 cells assessed as cell death after 48 hr by MTT assay in absence of light; assay type: functional; details: BEL-7404, 48 h, read-out: ID50 (the source's name)
[8] = Cytotoxicity against Homo sapiens (human) MCG cells assessed as cell death at 6.25 ug/ml after 18 hr by MTT assay in absence of light; assay type: functional
[9] = Photocytotoxicity against Homo sapiens (human) HNE1 cells assessed as cell death at 6.25 ug/ml after 18 hr by MTT assay in presence of light; assay type: functional
[10] = Cytotoxicity against Homo sapiens (human) HNE1 cells assessed as cell death after 48 hr by MTT assay in absence of light; assay type: functional; details: HNE1, 48 h, read-out: ID50 (the source's name)
[11] = Photocytotoxicity against Homo sapiens (human) MCG cells assessed as cell death at 6.25 ug/ml after 18 hr by MTT assay in presence of light; assay type: functional
[12] = Solubility of the compound in water; assay type: physicochemical; details: buffer

O=C([C@H](O)[C@@H](O)[C@H](O[C@@H]1O[C@H](CO)[C@H](O)[C@H](O)[C@H]1O)[C@H](O)CO)N1CCN(c2ccc(-c3c4nc(c(-c5ccc(N6CCN(C(=O)[C@H](O)[C@@H](O)[C@H](O[C@@H]7O[C@H](CO)[C@H](O)[C@H](O)[C@H]7O)[C@H](O)CO)CC6)cc5)c5ccc([nH]5)c(-c5ccc(N6CCN(C(=O)[C@H](O)[C@@H](O)[C@H](O[C@@H]7O[C@H](CO)[C@H](O)[C@H](O)[C@H]7O)[C@H](O)CO)CC6)cc5)c5nc(c(-c6ccc(N7CCN(C(=O)[C@H](O)[C@@H](O)[C@H](O[C@@H]8O[C@H](CO)[C@H](O)[C@H](O)[C@H]8O)[C@H](O)CO)CC7)cc6)c6ccc3[nH]6)C=C5)C=C4)cc2)CC1
Drug uptake (Liver [1]): Active | Drug uptake (Zone of skin): Not Active | Drug uptake (Liver [2]): Not Active

O=C([C@H](O)[C@@H](O)[C@H](O[C@@H]1O[C@H](CO)[C@H](O)[C@H](O)[C@H]1O)[C@H](O)CO)N1CCN(c2ccc(-c3c4nc(c(-c5ccccc5)c5ccc([nH]5)c(-c5ccccc5)c5nc(c(-c6ccccc6)c6ccc3[nH]6)C=C5)C=C4)cc2)CC1
IC50 [3]: 48 µg/mL (≈ 46.2 µM) | Activity [4]: 8% | Activity [5]: 75% | Activity [6]: 8% | IC50 [7]: 43 µg/mL (≈ 41.4 µM) | Activity [8]: 8% | Activity [9]: 75% | IC50 [10]: 46 µg/mL (≈ 44.3 µM) | Activity [11]: 75%

C1=Cc2nc1c(-c1ccccc1)c1nc(c(-c3ccccc3)c3ccc([nH]3)c(-c3ccccc3)c3ccc([nH]3)c2-c2ccccc2)C=C1 [TETRAPHENYLPORPHYRIN]
IC50 [3]: > 50 µg/mL | IC50 [7]: > 50 µg/mL | IC50 [10]: > 50 µg/mL | solubility [12]: Insoluble
